We go through one compound from US20140309295A1, “ANTIEPILEPTIC, HYPOCHOLESTEROLEMIC AND NEUROPROTECTIVE COMPOUND” (NEURON BIOPHARMA, S.A., priority 2009, published 2014).

For orientation: LD50 means the dose at which mortality reaches 50%. A high value points to lower toxicity. A word on the Papp: it is the rate of passage across a membrane or cell layer, normalised by area and donor concentration. A low value points to slow passage.

The subject of data set [1] is FVB/NHan mice inoculated with kainate (KA). As to the kind of experiment: Integral memory test (temporal and spatial memory) in mice after kainate. Type of data set: in vivo. As to the method: All the animals included for the experimental process were 12-week old males of the FVB/NHan strain. The experiments were conducted strictly following the Guidance on the Operation of Animals (Scientific Procedures, Act. 1986). The animals had their respective quarantine period and were treated with maximum precaution to minimize possible contaminations for inoculations and handling.
Twenty-eight animals were used in this assay and the treatments were all conducted by intraperitoneal (i.p.) route with a volume of 100 μl, according to the following regimens: • i) PBS+PBS+PBS regimen: 4 animals were initially treated with PBS with a daily dose for 2 days, on the second day the animals were inoculated with a new dose of PBS and for the following 3 days with a daily dose of PBS. • ii) PBS+KA+PBS regimen: 6 animals were initially treated with PBS with a daily dose for 2 days, on the second day the animals were inoculated with a dose of kainate at 25 mg/Kg and for the following 3 days with a daily dose of PBS. • iii) PBS+KA+NST0037 regimen: 7 animals were initially treated with PBS with a daily dose for 2 days, on the second day the animals were inoculated with a dose of kainate at 25 mg/Kg and for the following 3 days with a daily dose of NST0037 at 50 mg/kg. • iv) NST0037+KA+NST0037 regimen: 6 animals were initially treated with a daily dose for 2 days with NST0037 at 50 mg/kg, on the second day the animals were inoculated with a dose of kainate at 25 mg/Kg and for the following 3 days with a daily dose of NST0037 at 50 mg/kg. • v) NST0037+PBS+NST0037 regimen: 5 animals were initially treated with a daily dose for 2 days with NST0037 at 50 mg/kg, on the second day the animals were inoculated with a dose of PBS and for the following 3 days with a daily dose of NST0037 at 50 mg/kg.
Three days after inoculation of KA, an object recognition test called integral memory test was performed on the animals.

The subject of data set [2] is Aβ(1-40) and Aβ(1-42) secreted by SK-N-MC cells overexpressing APP. Put plainly: Secretion of β-amyloid peptide in SK-N-MC cells overexpressing APP (ELISA). Type of data set: cell-based, human. As for the experimental part:
The assay was performed on human neuroblastoma SK-N-MC cells in culture from the American Type Culture Collection (ATCC), stably transfected with a construct carried by the APP gene (beta-amyloid precursor protein, Gene ID: 351) in isoform 695, which is the most frequent variant expressed in neurons, whereby overexpression of the APP protein is achieved. In all cases strict rules of sterility were followed and the manipulation was performed in class II biological safety cabinets following European standard EN 12469. […]
The cells were incubated (at 37° C. and 5% CO2) with these treatments for 48 hours, 500 μl of conditioned medium then being collected to perform the measurements. […] The two most frequent Aβ species, 1-40 and 1-42, were measured. […] The amount of Aβ(1-40) and Aβ(1-42) of the conditioned medium was analyzed for each treatment by means of ELISA (Enzyme-linked immunosorbent assay), using the “beta amyloid 40 ELISA” and “beta amyloid 42 ELISA” kit (Biosource), following the recommendations of the manufacturer. The results were quantified by using an increasing concentration curve with synthetic peptides. […]
On the technique in general: An ELISA detects its analyte on a solid surface through an enzyme-linked reagent.

Data set [3] is described as follows: Lethality by constant exposure in water (4 days) in adult zebrafish (OECD 203). Type of data set: in vivo. The following applies: zebrafish, in vivo; 4 days of continuous treatment in water. As to the method:
(§1) The object of this assay is to determine the acute lethal toxicity of a substance on freshwater fish. Acute toxicity is the distinguishable adverse effect induced in an organism as a result of the exposure to a given substance for a short time period (days).
(§2) The deaths of the animals under study during the entire time of the assay were recorded as a toxicity parameter.
(§3) To that end, the fish that survived the treatment were sacrificed at 4 days post-treatment (previously anesthetized) and the samples (whole fish) were included in paraffin. The hematoxylin-eosin staining was subsequently performed in order to conduct the histopathological studies, obtaining a minimum of 6 longitudinal sections per animal, for the purpose of collecting different study areas of the same organ. The following organs were studied: brain, kidney, pancreas, intestine, eye, gills, ovary, testicle, muscle and liver.

Another data set relates to adult zebrafish. Described as above. Type of data set: in vivo. The settings on record: for histopathology: ovary / Mortality (dead animals/total): 4 days. As for the experimental part:
as §1, §2, §3

Another data set can be described thus: in vitro. The settings on record: PAMPA, pH 7.4. Background: PAMPA measures passive passage across an artificial lipid membrane.

As for `CCC(CC)C(=O)O[C@H]1C[C@@H](C)C=C2C=C[C@H](C)[C@H](CC[C@@H]3C[C@@H](O)CC(=O)O3)[C@H]21` [NST0037, (1S,2S,6R,8S,8aR)-1,2,6,7,8,8a-hexahydro-3,7-dimethyl-8-[2-[(2R,4R)-tetrahydro-4-hydroxy-6-oxo-2H-pyran-2-yl]ethyl]-1-naphthalenyl-2-ethyl-butyrate], the spatial memory result in data set [1] (NST0037+KA+NST0037 regimen, 50 mg/kg i.p.) is “spatial memory is intact”; in data set [1] (NST0037+PBS+NST0037 regimen), “spatial memory is intact”; in data set [1] (PBS+KA+NST0037 regimen, 50 mg/kg i.p.), “improvement of this type of memory”. Besides, the temporal memory entry in data set [1] (NST0037+KA+NST0037 regimen, 50 mg/kg i.p., 3 days after KA) is “prevented the reduction in the temporal memory capacity”; in data set [1] (NST0037+PBS+NST0037 regimen, vs PBS+PBS+PBS), “improvement of the temporal memory”; in data set [1] (PBS+KA+NST0037 regimen, 50 mg/kg i.p., 3 days after KA), “improvement of the state of the temporal memory”. In data set [2] (10, 40 and 100 μM of NST0037, 48 hours), the “secreted Aβ(1-40) with respect to control cells” value is “a reduction is obtained”. The “secreted Aβ(1-42) with respect to control cells” value in data set [2] (10 and 40 μM of NST0037, 48 hours) is reported as “a reduction is obtained”. This compound registered a median lethal dose (LD50) at 4 days in data set [3] above 100 mg/kg. Moreover, the results for the “histopathology: ovary” value in the data set with adult zebrafish (30 mg/kg) and in the data set on adult zebrafish (100 mg/Kg) were “not being observed” and “presented ovarian damage”, respectively. Further, the “Mortality (dead animals/total)” value in the data set on adult zebrafish (Dose 1 mg/kg) is 0/7; with adult zebrafish (Dose 3.2 mg/kg), 0/7; in the data set on adult zebrafish (Dose 10 mg/kg) it was 0/7; in the data set with adult zebrafish (Dose 32 mg/kg) it was 0/7; in the data set on adult zebrafish (Dose 100 mg/kg), 1/7. For the same compound, the percentage of mortality in the data set with adult zebrafish (day 4 post-treatment (100 mg/kg group)) was found to be 14%. The compound further returned a Papp at 18 h, 100 μM in “in vitro” of 3.1 ×10⁻⁶ cm/s.
